Source: article doi:10.1101/2025.03.14.643404, “A Bivalent Molecular Glue Linking Lysine Acetyltransferases to Oncogene-induced Cell Death” (bioRxiv, 2025)

How the values were obtained:
DB = assay: Cell viability, 7 days compound treatment (Cell Titer-Glo), DB; format: cell-based; conditions: Homo sapiens, 168 h, read-out: IC50 of antiproliferation
Description: Fifteen thousand cells were seeded in 100 μl of media per well of a U-bottom 96-well plate and treated with digitally dispensed drugs (Tecan D300e) for the indicated times and doses. After 96 hours, plates were centrifuged for 750 rpm for 3 minutes, and old media was exchanged for 100 μl of fresh media. Drug treatment was then repeated at the indicated doses. 72 hours following media change, cells were transferred to 96 well flat-bottom opaque plates. Viability was measured by adding 25 μL Cell Titer-Glo reagent (Promega G7570) to each well and luminescence was measured (BMG Labtech Pherastar FS). The background luminescence was subtracted, and the signal was normalized to DMSO-treated cells. IC50 measurements on cell lines were calculated using at least three biological replicates by separate cell passages. Fit of dose–response curves to data and statistical analysis was performed using GraphPad PRISM using the four-parameter log(inhibitor) vs response function.

p300 = target: T1, p300 (Homo sapiens, UniProt P41182+Q09472); assay: p300 immunoprecipitation-mass spectrometry in SUDHL5; format: cell-based; conditions: SUDHL5, 1 nM, 2 h, vs DMSO
T1 construct: endogenous in cells; host or cells: SUDHL5
T1 sequence (Q09472 2-2414 limits assumed, other chains not shown): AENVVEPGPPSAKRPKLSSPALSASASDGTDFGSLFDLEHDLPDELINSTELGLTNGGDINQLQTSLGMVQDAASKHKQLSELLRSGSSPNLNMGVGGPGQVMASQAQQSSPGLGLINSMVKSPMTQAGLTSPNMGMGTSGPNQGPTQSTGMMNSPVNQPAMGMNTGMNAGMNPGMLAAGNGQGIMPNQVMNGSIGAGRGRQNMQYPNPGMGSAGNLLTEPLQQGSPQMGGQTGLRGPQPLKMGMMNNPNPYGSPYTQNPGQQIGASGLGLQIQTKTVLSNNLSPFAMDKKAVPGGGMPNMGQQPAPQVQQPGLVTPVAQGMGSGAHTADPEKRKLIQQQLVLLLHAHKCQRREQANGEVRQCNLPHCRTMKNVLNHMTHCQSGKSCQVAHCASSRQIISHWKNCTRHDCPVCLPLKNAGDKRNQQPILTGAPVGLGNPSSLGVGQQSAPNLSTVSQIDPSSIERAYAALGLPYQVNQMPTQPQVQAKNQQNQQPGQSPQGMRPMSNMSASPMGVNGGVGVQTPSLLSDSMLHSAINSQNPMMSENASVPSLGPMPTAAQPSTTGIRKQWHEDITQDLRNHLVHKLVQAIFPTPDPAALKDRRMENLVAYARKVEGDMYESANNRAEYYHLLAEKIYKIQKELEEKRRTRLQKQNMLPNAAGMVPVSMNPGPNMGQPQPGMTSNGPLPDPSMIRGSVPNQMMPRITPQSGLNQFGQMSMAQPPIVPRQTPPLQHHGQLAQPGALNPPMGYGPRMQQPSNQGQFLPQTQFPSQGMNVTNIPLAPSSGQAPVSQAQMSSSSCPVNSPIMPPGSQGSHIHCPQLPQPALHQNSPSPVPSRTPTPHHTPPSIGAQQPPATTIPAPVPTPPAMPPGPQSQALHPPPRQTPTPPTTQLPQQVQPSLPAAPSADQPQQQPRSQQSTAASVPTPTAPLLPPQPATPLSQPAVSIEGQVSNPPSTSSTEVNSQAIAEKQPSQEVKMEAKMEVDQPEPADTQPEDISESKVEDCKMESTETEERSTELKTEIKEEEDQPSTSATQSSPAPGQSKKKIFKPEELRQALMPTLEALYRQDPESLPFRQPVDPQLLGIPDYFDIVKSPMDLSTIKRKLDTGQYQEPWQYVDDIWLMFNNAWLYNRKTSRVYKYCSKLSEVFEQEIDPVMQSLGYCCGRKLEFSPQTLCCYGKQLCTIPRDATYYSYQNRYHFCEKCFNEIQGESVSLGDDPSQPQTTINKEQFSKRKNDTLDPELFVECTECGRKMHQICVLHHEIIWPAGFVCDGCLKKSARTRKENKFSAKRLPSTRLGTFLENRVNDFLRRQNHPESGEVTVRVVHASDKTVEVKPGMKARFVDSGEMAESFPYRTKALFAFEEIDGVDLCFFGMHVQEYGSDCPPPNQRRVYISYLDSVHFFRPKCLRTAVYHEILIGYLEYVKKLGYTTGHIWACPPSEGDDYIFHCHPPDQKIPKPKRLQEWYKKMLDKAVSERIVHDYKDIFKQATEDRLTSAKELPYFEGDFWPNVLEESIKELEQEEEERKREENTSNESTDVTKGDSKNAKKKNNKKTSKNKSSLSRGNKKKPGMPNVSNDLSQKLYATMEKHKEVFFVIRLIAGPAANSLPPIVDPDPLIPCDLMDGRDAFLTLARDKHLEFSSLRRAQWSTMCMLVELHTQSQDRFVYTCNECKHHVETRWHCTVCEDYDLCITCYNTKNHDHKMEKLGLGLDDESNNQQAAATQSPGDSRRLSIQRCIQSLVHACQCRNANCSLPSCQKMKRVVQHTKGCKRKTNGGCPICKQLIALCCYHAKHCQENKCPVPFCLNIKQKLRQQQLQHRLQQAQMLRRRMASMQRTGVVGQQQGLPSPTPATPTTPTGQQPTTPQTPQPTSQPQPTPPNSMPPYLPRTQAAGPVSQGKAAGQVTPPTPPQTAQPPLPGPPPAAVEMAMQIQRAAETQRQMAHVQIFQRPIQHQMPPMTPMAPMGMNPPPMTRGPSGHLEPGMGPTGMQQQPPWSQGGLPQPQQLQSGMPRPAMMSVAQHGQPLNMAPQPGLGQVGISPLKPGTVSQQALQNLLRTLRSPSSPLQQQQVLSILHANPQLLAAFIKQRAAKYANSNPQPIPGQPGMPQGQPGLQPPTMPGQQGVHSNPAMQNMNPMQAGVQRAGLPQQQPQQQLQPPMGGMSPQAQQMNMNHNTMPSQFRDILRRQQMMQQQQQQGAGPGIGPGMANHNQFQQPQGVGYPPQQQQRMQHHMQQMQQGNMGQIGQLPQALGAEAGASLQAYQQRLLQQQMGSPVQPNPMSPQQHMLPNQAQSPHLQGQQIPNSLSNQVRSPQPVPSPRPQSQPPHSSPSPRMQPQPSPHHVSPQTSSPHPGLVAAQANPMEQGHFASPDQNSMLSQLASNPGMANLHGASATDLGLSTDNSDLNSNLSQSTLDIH
Description: 50 million FLAG-BCL6 knock-in SUDHL5 cells were treated compound or DMSO (0.1%) at indicated doses for 2 hours. Cells were lysed in NE10 buffer (20 mM HEPES (pH 7.5), 10 mM KCl, 1 mM MgCl2, 0.1% Triton X-100 (v/v), protease inhibitors (Roche), 15 mM ß-mercaptoethanol), dounced 15 times and pelleted 5 min at 500 g. Nuclei were washed in NE10 buffer and then digested with 250 units benzonase (Millipore) for 30 min rotating at 25°C. Nuclei were resuspended in NE150 buffer (NE10 supplemented with 150mM NaCl) and incubated for 20 min. Lysates were pelleted at 16,000 g for 20 min at 4°C and supernatants were immunoprecipitated by incubating with 2.5 μg FLAG M2 antibody (F1804, Millipore-Sigma) or 2.5 μg p300 (A300–358A, Bethyl Laboratories) antibody with Dynabeads Protein G (Thermo Fisher) overnight at 4°C. The IP fraction was recovered by magnetic separation followed by three washes with NE10 buffer containing 150mM–300mM NaCl but without Triton-X. For mass spectrometry analysis, the IP was then eluted from the beads with Ammonium Hydroxide, pH 11–12; 3% v/v. […]
The reconstituted desalted peptides were then analyzed using a nanoElute 2 UHPLC (Bruker Daltonics, Bremen, Germany) coupled to a timsTOF HT (Bruker Daltonics, Bremen, Germany) via a CaptiveSpray nano-electrospray source. […]

SMILES: CNC(=O)COc1cc2cc(Nc3nc(N4CCC(C(=O)N5CCN(CCC(=O)N6CCC(n7nc(N8CCCc9cc(-c%10cnn(C)c%10)c(C(F)F)cc98)c8c7CCN(C(=O)NC)C8)CC6)CC5)CC4)ncc3Cl)cc(OC)c2n(C)c1=O [TCIP3]
- IC50 (DB): 9.8 nM
- enrichment of BCL6 in p300 IP, log2(fold change) (p300): 4.0
